Test results: patent US9296728B2, “Therapeutic compounds” (Regents of the University of Minnesota, priority 2012, dated 2016)

Tests used:
MCT1 = MCT1 (Rattus norvegicus (Rat), UniProt P53987); assay: Test A. MCT1 inhibition via lactate uptake in rat brain endothelial (RBE4) cells; type: cell-based; conditions: 14C-lactate uptake
Description: Test A. MCT1 Inhibition Via Lactate Uptake Rat Brain Endothelial Cells
The entire lactate uptake studies for the inhibition of MCT1 were carried out on RBE4 (Rat Brain Endothelial 4) cells. The expression of MCT1 on these cells was confirmed by Western Blotting. The cells were plated approximately 20-24 hours before the experiment, the number of cells being approximately 10^5 cells per well. The test compounds were dissolved in DMSO and diluted 1000 times using a solution of HEPES buffer (pH 7.43) which consists of 3 μM ^14C-Lactate and 2 μM L-Lactate. The cells were washed twice with 500 μL of HEPES buffer and the cells were allowed to equilibrate for 15 minutes at 37° C. The HEPES buffer was removed and 250 μL of the test sample was added in triplicates. This was repeated for all the compounds, including the controls (CHC and DMSO). After 15 minutes, the compounds were removed from the well and 500 μL of ice-cold stop buffer (0.1 mM CHC solution in HEPES buffer) was added. The plate was kept on ice. Now, the HEPES buffer in one triplicate was removed and DMSO solution was added and immediately removed and ice-cold stop buffer was added. This was considered as “Zero”. One triplicate was left blank, which was used for protein assay after lysing the cells. The cells were washed twice with ice-cold HEPES buffer and then 250 μL of 0.1M NaOH in 5% Triton-X solution was added and the plate is kept on a shaker for 40 minutes to lyse the cells. 150 μL of the lysed cells was added into 4 mL of the scintillation fluid in a scintillation vial and scintillation count was obtained in disintegrations per minute (dpm). The percent inhibition values were calculated by taking DMSO as minimum. Concentration study (usually 9-12 dilutions) was done to determine the IC50 of each compound.

[1] = Toxicity study in healthy ICR mice (body weight, WBC, RBC); type: in vivo; conditions: for RBC ± SEM / WBC ± SEM: end of day 22
Description: 60 ICR mice weighing ˜27 grams were randomly assigned into 5 groups (12 animals, 6 male and 6 female per group), one group being the control group without any drug administration (food only). The drugs were administered twice daily by P.O. or I.P. Group 1 and 3 were administered orally with 50 mg/Kg of Compound 20 and 18 mg/Kg of Compound 14 respectively. Group 2 and 4 mice were injected intraperitoneally with 6.67 mg/Kg of Compound 20 and 5.3 mg/Kg of Compound 14 (dissolved in water) respectively. The body weights of mice were recorded daily for 22 days. At the end of the 22nd day, 3 mice were randomly selected from each group and their blood samples were collected for detailed analysis of white blood cell (WBC) and red blood cell (RBC) counts. The mice were then euthanized with CO2.

[2] = Toxicity study in BALB/c nude mice containing WiDr colorectal adenocarcinoma xenograft (body weight); type: in vivo; conditions: BALB/c nude mice with WiDr xenograft, 8 mg/kg i.p. twice daily
Description: Female BALB/c nude mice weighing ˜20 g were taken and 5.0 10^6 WiDr cancer cells were implanted into their right flanks with a 1:1 mixture of 0.1 mL PBS and matrigel. The tumor was allowed to grow to a size of ˜150 cubic millimeters (14 days). The mice were randomly chosen by chance and assigned into 5 groups (6 mice per group), one group being the control group to which tumor was allowed to grow without any drug administration (food only). The drugs were administered twice daily by P.O. or I.P. Group 1 mice were administered orally with 50 mg/kg of Compound 20. Groups 2, 3 and 4 mice were treated via IP with 10 mg/kg Compound 20, 8 mg/kg of Compound 14 and 238 mg/kg CHC respectively. Body weight changes were recorded every two days for 3 weeks.

Chain of MCT1 (P53987 whole entry): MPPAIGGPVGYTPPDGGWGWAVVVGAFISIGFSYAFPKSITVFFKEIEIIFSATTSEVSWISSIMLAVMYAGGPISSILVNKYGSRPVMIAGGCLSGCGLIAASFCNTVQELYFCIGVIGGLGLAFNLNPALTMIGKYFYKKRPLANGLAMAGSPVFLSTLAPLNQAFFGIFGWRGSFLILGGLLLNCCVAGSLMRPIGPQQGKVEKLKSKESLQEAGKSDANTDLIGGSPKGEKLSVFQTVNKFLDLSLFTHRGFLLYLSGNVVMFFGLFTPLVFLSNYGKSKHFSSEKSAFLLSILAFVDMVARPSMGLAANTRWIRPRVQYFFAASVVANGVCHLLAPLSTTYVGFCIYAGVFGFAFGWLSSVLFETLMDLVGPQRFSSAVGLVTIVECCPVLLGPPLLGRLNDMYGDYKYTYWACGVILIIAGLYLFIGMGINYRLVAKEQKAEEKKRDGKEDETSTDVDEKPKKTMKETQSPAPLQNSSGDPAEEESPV
Chain of MCT1 (P26453 141-388 partner): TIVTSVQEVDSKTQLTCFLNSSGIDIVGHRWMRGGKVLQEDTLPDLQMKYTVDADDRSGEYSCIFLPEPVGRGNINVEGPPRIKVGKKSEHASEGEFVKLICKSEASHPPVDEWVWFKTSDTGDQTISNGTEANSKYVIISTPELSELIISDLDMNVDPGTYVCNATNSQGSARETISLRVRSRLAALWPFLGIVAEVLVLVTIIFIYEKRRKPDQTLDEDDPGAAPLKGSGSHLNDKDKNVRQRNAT

Structure (SMILES)	IC50 (MCT1) [µM]	further results
O=C(O)c1cc2ccc(N3CCCC3)cc2oc1=O [Compound 26]	0.22	–
C=CCN(CC=C)c1ccc2cc(C(=O)O)c(=O)oc2c1 [Compound 23]	0.25	–
C#CCN(CC#C)c1ccc2cc(C(=O)O)c(=O)oc2c1 [Compound 24]	0.15	–
O=C(O)c1cc2ccc(N(Cc3ccc(F)cc3)Cc3ccc(F)cc3)cc2oc1=O [Compound 27]	0.2	–
O=C(O)c1cc2ccc(N(Cc3ccccc3)Cc3ccccc3)cc2oc1=O [Compound 25]	0.048	–
CCCCCN(CCCCC)c1ccc(/C=C(\C#N)C(=O)O)cc1 [Compound 5]	0.12	–
O=C(O)c1cc2ccc(N(Cc3ccc(Cl)cc3)Cc3ccc(Cl)cc3)cc2oc1=O [Compound 28]	0.92	–
CCCN(CCC)c1ccc2cc(C(=O)O)c(=O)oc2c1 [Compound 22]	0.299	–
CCCCCCN(CCCCCC)c1ccc(/C=C(\C#N)C(=O)O)cc1 [Compound 6]	0.95	–
C#CCN(CC#C)c1ccc(/C=C(\C#N)C(=O)O)cc1 [Compound 8]	0.34	–

Further lines, with some results ahead:

IC50 (MCT1) [µM]	Structure (SMILES)	further results
0.11	N#C/C(=C\c1ccc(N2CCCCC2)cc1)C(=O)O [Compound 12]	–
0.025	C=CCN(CC=C)c1ccc(/C=C(\C#N)C(=O)O)c(OC)c1 [Compound 16]	–
0.023	CCCCCN(CCCCC)c1ccc(/C=C(\C#N)C(=O)O)c(OC)c1 [Compound 15]	–
0.043	N#C/C(=C\c1ccc(N(Cc2ccccc2)Cc2ccccc2)cc1)C(=O)O [Compound 10]	–
0.019	COc1cc(N(Cc2ccccc2)Cc2ccccc2)ccc1/C=C(\C#N)C(=O)O [Compound 19]	–
0.0076	CCCCN(CCCC)c1ccc(/C=C(\C#N)C(=O)O)c(OC)c1 [Compound 14]	Weight in grams (Day 0) ([1]; 5.3 mg/kg i.p. twice daily): 27.05 grams; Weight in grams (Day 22) ([1]; 5.3 mg/kg i.p. twice daily): 32.53 grams; RBC ± SEM ([1]; 5.3 mg/kg i.p. twice daily): 1.58 ± 0.05 10^13/L; WBC ± SEM ([1]; 5.3 mg/kg i.p. twice daily): 5.80 ± 0.72 10^10/L; Weight in grams (Day 0) ([1]; 18 mg/kg p.o. twice daily): 27.04 grams; Weight in grams (Day 22) ([1]; 18 mg/kg p.o. twice daily): 32.60 grams; RBC ± SEM ([1]; 18 mg/kg p.o. twice daily): 1.58 ± 0.02 10^13/L; WBC ± SEM ([1]; 18 mg/kg p.o. twice daily): 4.57 ± 0.49 10^10/L; Weight in grams (Day 0) ([2]; Day 0): 22.08 grams; Weight in grams (Day 22) ([2]; Day 22): 23.50 grams
0.11	O=C(O)c1cc2ccc(N(Cc3ccc4c(c3)OCO4)Cc3ccc4c(c3)OCO4)cc2oc1=O [Compound 29]	–
0.091	C#CCN(CC#C)c1ccc(/C=C(\C#N)C(=O)O)c(OC)c1 [Compound 17]	–
0.066	CC(C)CN(CC(C)C)c1ccc(/C=C(\C#N)C(=O)O)cc1 [Compound 9]	–
0.026	CCCCN(CCCC)c1ccc(/C=C(\C#N)C(=O)O)cc1 [Compound 4]	–
0.0095	CCCN(CCC)c1ccc(/C=C(\C#N)C(=O)O)c(OC)c1 [Compound 13]	–
0.015	COc1cc(N(CC(C)C)CC(C)C)ccc1/C=C(\C#N)C(=O)O [Compound 18]	–
0.088	C=CCN(CC=C)c1ccc(/C=C(\C#N)C(=O)O)cc1 [Compound 7]	–
0.059	COc1cc(N2CCCC2)ccc1/C=C(\C#N)C(=O)O [Compound 21]	–
0.064	N#C/C(=C\c1ccc(N2CCCC2)cc1)C(=O)O [Compound 11]	–
